In ChEMBL document CHEMBL3885881, “DrugMatrix”:

Species on record: Rattus norvegicus
Test: DrugMatrix - Regimen: Daily Repeat
Format: toxicity, organism-based, Sprague-Dawley
Parameters: regimen Daily Repeat, gender Male, age 6-8 weeks
Conditions: in vivo, iv, vehicle 100 % SALINE; for ABSOLUTE BASOPHIL / ABSOLUTE EOSINOPHIL / ABSOLUTE LYMPHOCYTE / ABSOLUTE MONOCYTE / ABSOLUTE SEGMENTED NEUTROPHIL / BASOPHIL / EOSINOPHIL / ERYTHROCYTE COUNT / HEMATOCRIT / HEMOGLOBIN / LEUKOCYTE COUNT / LYMPHOCYTE / MEAN CORPUSCULAR HEMOGLOBIN / MEAN CORPUSCULAR HEMOGLOBIN CONCENTRATION / MEAN CORPUSCULAR VOLUME / MONOCYTE / NEUTROPHIL / NUCLEATED RED BLOOD CELLS / PLATELET COUNT: tissue Blood; for ALANINE AMINOTRANSFERASE / ALBUMIN / ALKALINE PHOSPHATASE / ASPARTATE AMINOTRANSFERASE / BLOOD UREA NITROGEN / CARBON DIOXIDE / CHLORIDE / CHOLESTEROL / CREATINE PHOSPHOKINASE / CREATININE / GLUCOSE / LACTATE DEHYDROGENASE / LIPASE / PHOSPHORUS / POTASSIUM / SODIUM / TOTAL BILIRUBIN / TOTAL PROTEIN / URIC ACID: tissue Plasma
[1] = 0 mg/kg, 72 h, dose level Control, time 3 day
[2] = 0 mg/kg, 120 h, dose level Control, time 5 day
[3] = 20 mg/kg, 72 h, dose level Low, time 3 day
[4] = 20 mg/kg, 120 h, dose level Low, time 5 day

CN(N=O)C(=O)N[C@@H](C=O)[C@@H](O)[C@H](O)[C@H](O)CO [STREPTOZOCIN]
ABSOLUTE BASOPHIL [1]: 0 CELLS/uL
ABSOLUTE EOSINOPHIL [1]: 247.67 CELLS/uL
ABSOLUTE LYMPHOCYTE [1]: 13190.83 CELLS/uL
ABSOLUTE MONOCYTE [1]: 307.67 CELLS/uL
ABSOLUTE SEGMENTED NEUTROPHIL [1]: 1220.5 CELLS/uL
BASOPHIL [1]: 0%
EOSINOPHIL [1]: 1.67%
ERYTHROCYTE COUNT [1]: 5.47 x10E6/uL
HEMATOCRIT [1]: 33.98%
HEMOGLOBIN [1]: 12.65 G/DL
LEUKOCYTE COUNT [1]: 14.97 x10E3/uL
LYMPHOCYTE [1]: 88.17%
MEAN CORPUSCULAR HEMOGLOBIN [1]: 23.17 pg
MEAN CORPUSCULAR HEMOGLOBIN CONCENTRATION [1]: 37.23 G/DL
MEAN CORPUSCULAR VOLUME [1]: 62.25 fL
MONOCYTE [1]: 2%
NEUTROPHIL [1]: 8.17%
NUCLEATED RED BLOOD CELLS [1]: 0 /100WBC
PLATELET COUNT [1]: 1307.17 x10E3/uL
ALANINE AMINOTRANSFERASE [1]: 39.67 u/L
ALBUMIN [1]: 4.08 G/DL
ALKALINE PHOSPHATASE [1]: 383.17 u/L
ASPARTATE AMINOTRANSFERASE [1]: 88.83 u/L
BLOOD UREA NITROGEN [1]: 18.5 mg/dL
CARBON DIOXIDE [1]: 27.5 mmol/L
CHLORIDE [1]: 103 MEQ/L
CHOLESTEROL [1]: 67.33 mg/dL
CREATINE PHOSPHOKINASE [1]: 414.67 u/L
CREATININE [1]: 0.19 mg/dL
GLUCOSE [1]: 149.33 mg/dL
LACTATE DEHYDROGENASE [1]: 536.83 u/L
LIPASE [1]: 8.83 u/L
PHOSPHORUS [1]: 11.13 mg/dL
POTASSIUM [1]: 6.23 MEQ/L
SODIUM [1]: 144.42 MEQ/L
TOTAL BILIRUBIN [1]: 0.18 mg/dL
TOTAL PROTEIN [1]: 5.57 G/DL
URIC ACID [1]: 1.23 mg/dL
ABSOLUTE BASOPHIL [2]: 0 CELLS/uL
ABSOLUTE EOSINOPHIL [2]: 158.83 CELLS/uL
ABSOLUTE LYMPHOCYTE [2]: 13517.17 CELLS/uL
ABSOLUTE MONOCYTE [2]: 352.67 CELLS/uL
ABSOLUTE SEGMENTED NEUTROPHIL [2]: 1104.67 CELLS/uL
BASOPHIL [2]: 0%
EOSINOPHIL [2]: 1%
ERYTHROCYTE COUNT [2]: 5.73 x10E6/uL
HEMATOCRIT [2]: 36.85%
HEMOGLOBIN [2]: 13.67 G/DL
LEUKOCYTE COUNT [2]: 15.13 x10E3/uL
LYMPHOCYTE [2]: 89.5%
MEAN CORPUSCULAR HEMOGLOBIN [2]: 23.87 pg
MEAN CORPUSCULAR HEMOGLOBIN CONCENTRATION [2]: 37.1 G/DL
MEAN CORPUSCULAR VOLUME [2]: 64.33 fL
MONOCYTE [2]: 2.33%
NEUTROPHIL [2]: 7.17%
NUCLEATED RED BLOOD CELLS [2]: 0.17 /100WBC
PLATELET COUNT [2]: 1266 x10E3/uL
ALANINE AMINOTRANSFERASE [2]: 49.17 u/L
ALBUMIN [2]: 4.22 G/DL
ALKALINE PHOSPHATASE [2]: 352.67 u/L
ASPARTATE AMINOTRANSFERASE [2]: 95.17 u/L
BLOOD UREA NITROGEN [2]: 18.83 mg/dL
CARBON DIOXIDE [2]: 25.67 mmol/L
CHLORIDE [2]: 102.67 MEQ/L
CHOLESTEROL [2]: 66.83 mg/dL
CREATINE PHOSPHOKINASE [2]: 550.33 u/L
CREATININE [2]: 0.23 mg/dL
GLUCOSE [2]: 186.17 mg/dL
LACTATE DEHYDROGENASE [2]: 471.33 u/L
LIPASE [2]: 8.67 u/L
PHOSPHORUS [2]: 12.3 mg/dL
POTASSIUM [2]: 6.35 MEQ/L
SODIUM [2]: 143.57 MEQ/L
TOTAL BILIRUBIN [2]: 0.18 mg/dL
TOTAL PROTEIN [2]: 6.05 G/DL
URIC ACID [2]: 2 mg/dL
ABSOLUTE BASOPHIL [3]: 0 CELLS/uL
ABSOLUTE EOSINOPHIL [3]: 193 CELLS/uL
ABSOLUTE LYMPHOCYTE [3]: 10866.33 CELLS/uL
ABSOLUTE MONOCYTE [3]: 207.67 CELLS/uL
ABSOLUTE SEGMENTED NEUTROPHIL [3]: 899.67 CELLS/uL
BASOPHIL [3]: 0%
EOSINOPHIL [3]: 1.67%
ERYTHROCYTE COUNT [3]: 5.49 x10E6/uL
HEMATOCRIT [3]: 33.93%
HEMOGLOBIN [3]: 12.73 G/DL
LEUKOCYTE COUNT [3]: 12.17 x10E3/uL
LYMPHOCYTE [3]: 89.33%
MEAN CORPUSCULAR HEMOGLOBIN [3]: 23.23 pg
MEAN CORPUSCULAR HEMOGLOBIN CONCENTRATION [3]: 37.5 G/DL
MEAN CORPUSCULAR VOLUME [3]: 61.77 fL
MONOCYTE [3]: 1.67%
NEUTROPHIL [3]: 7.33%
NUCLEATED RED BLOOD CELLS [3]: 0.33 /100WBC
PLATELET COUNT [3]: 1240.67 x10E3/uL
ALANINE AMINOTRANSFERASE [3]: 42 u/L
ALBUMIN [3]: 4.1 G/DL
ALKALINE PHOSPHATASE [3]: 304.33 u/L
ASPARTATE AMINOTRANSFERASE [3]: 96.33 u/L
BLOOD UREA NITROGEN [3]: 16 mg/dL
CARBON DIOXIDE [3]: 25.33 mmol/L
CHLORIDE [3]: 104 MEQ/L
CHOLESTEROL [3]: 67 mg/dL
CREATINE PHOSPHOKINASE [3]: 595 u/L
CREATININE [3]: 0.25 mg/dL
GLUCOSE [3]: 148.67 mg/dL
LACTATE DEHYDROGENASE [3]: 798.67 u/L
LIPASE [3]: 9.33 u/L
PHOSPHORUS [3]: 11.97 mg/dL
POTASSIUM [3]: 6.35 MEQ/L
SODIUM [3]: 143.3 MEQ/L
TOTAL BILIRUBIN [3]: 0.17 mg/dL
TOTAL PROTEIN [3]: 5.4 G/DL
URIC ACID [3]: 1.33 mg/dL
ABSOLUTE BASOPHIL [4]: 0 CELLS/uL
ABSOLUTE EOSINOPHIL [4]: 64 CELLS/uL
ABSOLUTE LYMPHOCYTE [4]: 13587.67 CELLS/uL
ABSOLUTE MONOCYTE [4]: 429.67 CELLS/uL
ABSOLUTE SEGMENTED NEUTROPHIL [4]: 1452 CELLS/uL
BASOPHIL [4]: 0%
EOSINOPHIL [4]: 0.33%
ERYTHROCYTE COUNT [4]: 5.57 x10E6/uL
HEMATOCRIT [4]: 35.7%
HEMOGLOBIN [4]: 13.4 G/DL
LEUKOCYTE COUNT [4]: 15.53 x10E3/uL
LYMPHOCYTE [4]: 87.33%
MEAN CORPUSCULAR HEMOGLOBIN [4]: 24.07 pg
MEAN CORPUSCULAR HEMOGLOBIN CONCENTRATION [4]: 37.53 G/DL
MEAN CORPUSCULAR VOLUME [4]: 64.17 fL
MONOCYTE [4]: 2.67%
NEUTROPHIL [4]: 9.67%
NUCLEATED RED BLOOD CELLS [4]: 0 /100WBC
PLATELET COUNT [4]: 1260.33 x10E3/uL
ALANINE AMINOTRANSFERASE [4]: 54.33 u/L
ALBUMIN [4]: 4 G/DL
ALKALINE PHOSPHATASE [4]: 308.67 u/L
ASPARTATE AMINOTRANSFERASE [4]: 82.33 u/L
BLOOD UREA NITROGEN [4]: 21 mg/dL
CARBON DIOXIDE [4]: 26.33 mmol/L
CHLORIDE [4]: 103.67 MEQ/L
CHOLESTEROL [4]: 70.33 mg/dL
CREATINE PHOSPHOKINASE [4]: 420.67 u/L
CREATININE [4]: 0.21 mg/dL
GLUCOSE [4]: 181.67 mg/dL
LACTATE DEHYDROGENASE [4]: 60.33 u/L
LIPASE [4]: 7.67 u/L
PHOSPHORUS [4]: 12.23 mg/dL
POTASSIUM [4]: 6.34 MEQ/L
SODIUM [4]: 146.17 MEQ/L
TOTAL BILIRUBIN [4]: 0.17 mg/dL
TOTAL PROTEIN [4]: 6.03 G/DL
URIC ACID [4]: 1.87 mg/dL
